Test results reported in patent US11091501B2, “Heterocyclic compounds as RSV inhibitors” (Enanta Pharmaceuticals, Inc., priority 2017, dated 2021).

system: Human RSV-A (“Long” strain); assay: RSV in vitro cytoprotection assay (CPE, ATPlite) in HEp-2 cells; type: cell-based; conditions: human respiratory syncytial virus, 96 h; HEp-2 cells, 4-day incubation, ATPlite readout; read-out: Human RSV-A (“Long” strain) EC50
Procedure, shortened: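 HEp-2 cells (8,000/well) given 2-fold serial compound dilutions in duplicate, then infected with sucrose-stabilised RSV-A Long stock. After 4 days, cell viability read by ATPlite luminescence, with a parallel uninfected plate for cytotoxicity. EC50 binned A<0.01 μM, B 0.01-0.05 μM, C>0.05 μM.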

Structure (SMILES) | EC50
O=C(Nc1ccc(C(=O)N2CCc3cc(-c4nnco4)sc3-c3ccc(F)cc32)cc1)c1cccnc1N1CC2(CCOCC2)C1 [Example 142] | > 0.05 µM
Cc1cnc(N2CC3(CCOCC3)C2)c(C(=O)Nc2ccc(C(=O)N3CCc4c(sc(-c5nnco5)c4F)-c4ccc(F)cc43)cc2)c1 [Example 143] | < 0.01 µM
O=C(Nc1c(F)cc(F)cc1Cl)c1cc2c(s1)-c1ccc(F)cc1N(C(=O)c1ccc(NC(=O)c3cc(C(F)F)cnc3N3CC4(CCOCC4)C3)cc1)CC2 [Example 144] | 0.01 to 0.05 µM
O=C(Nc1c(F)cccc1Cl)c1cc2c(s1)-c1ccc(F)cc1N(C(=O)c1ccc(NC(=O)c3cc(C(F)F)cnc3N3CC4(CCOCC4)C3)cc1)CC2 [Example 145] | 0.01 to 0.05 µM
O=C(Nc1c(F)cccc1F)c1cc2c(s1)-c1ccc(F)cc1N(C(=O)c1ccc(NC(=O)c3cc(C(F)F)cnc3N3CC4(CCOCC4)C3)cc1)CC2 [Example 146] | 0.01 to 0.05 µM
Cc1ccc(C(=O)Nc2ccc(C(=O)N3CCc4cc(-c5nc6ccccc6[nH]5)sc4-c4ccc(F)cc43)cc2)c(N2CC3(CCOCC3)C2)n1 [Example 147] | < 0.01 µM
Cc1ccc(C(=O)Nc2ccc(C(=O)N3CCc4cc(-c5nc6cccc(Cl)c6[nH]5)sc4-c4ccc(F)cc43)cc2)c(N2CC3(CCOCC3)C2)n1 [Example 148] | 0.01 to 0.05 µM
Cc1ccc(C(=O)Nc2ccc(C(=O)N3CCc4cc(-c5nc6cccc(F)c6[nH]5)sc4-c4ccc(F)cc43)cc2)c(N2CC3(CCOCC3)C2)n1 [Example 149] | < 0.01 µM
Cc1cnc(N2CC3(CCOCC3)C2)c(C(=O)Nc2ccc(C(=O)N3CCc4cc(-c5nnc(C)s5)sc4-c4ccc(F)cc43)cc2)c1 [Example 150] | < 0.01 µM
Cc1cnc(N2CC3(CCOCC3)C2)c(C(=O)Nc2ccc(C(=O)N3CCc4cc(-c5ncc(C)s5)sc4-c4ccc(F)cc43)cc2)c1 [Example 151] | < 0.01 µM
Cc1cnc(N2CC3(CCOCC3)C2)c(C(=O)Nc2ccc(C(=O)N3CCc4cc(-c5nc(C)cs5)sc4-c4ccc(F)cc43)cc2)c1 [Example 152] | 0.01 to 0.05 µM
Cc1cnc(N2CC3(CCOCC3)C2)c(C(=O)Nc2ccc(C(=O)N3CCc4cc(-c5nc(C)c(C)s5)sc4-c4ccc(F)cc43)cc2)c1 [Example 153] | 0.01 to 0.05 µM
Cc1cnc(N2CC3(CCOCC3)C2)c(C(=O)Nc2ccc(C(=O)N3CCc4cc(-c5nccs5)sc4-c4ccc(F)cc43)cc2)c1 [Example 154] | < 0.01 µM
Cc1cnc(N2CC3(CCOCC3)C2)c(C(=O)Nc2ccc(C(=O)N3CCc4cc(-c5ncns5)sc4-c4ccc(F)cc43)cc2)c1 [Example 155] | < 0.01 µM
Cc1cnc(N2CC3(CCOCC3)C2)c(C(=O)Nc2ccc(C(=O)N3CCc4cc(-c5ncc(C)o5)sc4-c4ccc(F)cc43)cc2)c1 [Example 156] | 0.01 to 0.05 µM
Cc1cnc(N2CC3(CCOCC3)C2)c(C(=O)Nc2ccc(C(=O)N3CCc4cc(-c5nc(C)co5)sc4-c4ccc(F)cc43)cc2)c1 [Example 157] | 0.01 to 0.05 µM
Cc1cnc(N2CC3(CCOCC3)C2)c(C(=O)Nc2ccc(C(=O)N3CCc4cc(-c5nc(C)c(C)[nH]5)sc4-c4ccc(F)cc43)cc2)c1 [Example 158] | < 0.01 µM
Cc1cnc(N2CC3(CCOCC3)C2)c(C(=O)Nc2ccc(C(=O)N3CCc4cc(-c5ccnn5C)sc4-c4ccc(F)cc43)cc2)c1 [Example 161] | < 0.01 µM
Cc1cnc(N2CC3(CCOCC3)C2)c(C(=O)Nc2ccc(C(=O)N3CCc4cc(-c5ccncc5F)sc4-c4ccc(F)cc43)cc2)c1 [Example 162] | < 0.01 µM
Cc1cnc(N2CC3(CCOCC3)C2)c(C(=O)Nc2ccc(C(=O)N3CCc4cc(-c5ccc(F)cn5)sc4-c4ccc(F)cc43)cc2)c1 [Example 163] | < 0.01 µM
Cc1cnc(N2CC3(CCOCC3)C2)c(C(=O)Nc2ccc(C(=O)N3CCc4cc(-c5cccnc5F)sc4-c4ccc(F)cc43)cc2)c1 [Example 164] | < 0.01 µM
Cc1cnc(N2CC3(CCOCC3)C2)c(C(=O)Nc2ccc(C(=O)N3CCc4cc(-c5ncccc5F)sc4-c4ccc(F)cc43)cc2)c1 [Example 165] | < 0.01 µM
Cc1cnc(N2CC3(CCOCC3)C2)c(C(=O)Nc2ccc(C(=O)N3CCc4cc(-c5ccncc5)sc4-c4ccc(F)cc43)cc2)c1 [Example 166] | < 0.01 µM
Cc1cnc(N2CC3(CCOCC3)C2)c(C(=O)Nc2ccc(C(=O)N3CCc4cc(-c5cccnc5)sc4-c4ccc(F)cc43)cc2)c1 [Example 167] | < 0.01 µM
Cc1cnc(N2CC3(CCOCC3)C2)c(C(=O)Nc2ccc(C(=O)N3CCc4cc(-c5ccccn5)sc4-c4ccc(F)cc43)cc2)c1 [Example 168] | < 0.01 µM
Cc1cnc(N2CC3(CCOCC3)C2)c(C(=O)Nc2ccc(C(=O)N3CCc4cc(-c5ncco5)sc4-c4ccc(F)cc43)cc2)c1 [Example 169] | < 0.01 µM
Cc1cnc(N2CC3(CCOCC3)C2)c(C(=O)Nc2ccc(C(=O)N3CCc4cc(-c5c[nH]nc5C5CC5)sc4-c4ccc(F)cc43)cc2)c1 [Example 170] | < 0.01 µM
CCn1nccc1-c1cc2c(s1)-c1ccc(F)cc1N(C(=O)c1ccc(NC(=O)c3cc(C)cnc3N3CC4(CCOCC4)C3)cc1)CC2 [Example 171] | < 0.01 µM

Structure (SMILES) | EC50
Cc1cnc(N2CC3(CCOCC3)C2)c(C(=O)Nc2ccc(C(=O)N3CCc4cc(-c5cn(C)nc5N)sc4-c4ccc(F)cc43)cc2)c1 [Example 172] | < 0.01 µM
Cc1cnc(N2CC3(CCOCC3)C2)c(C(=O)Nc2ccc(C(=O)N3CCc4cc(-c5c[nH]c6ncccc56)sc4-c4ccc(F)cc43)cc2)c1 [Example 173] | < 0.01 µM
Cc1cnc(N2CC3(CCOCC3)C2)c(C(=O)Nc2ccc(C(=O)N3CCc4cc(-c5c[nH]c6ccc(Cl)cc56)sc4-c4ccc(F)cc43)cc2)c1 [Example 174] | > 0.05 µM
Cc1cnc(N2CC3(CCOCC3)C2)c(C(=O)Nc2ccc(C(=O)N3CCc4cc(-c5c[nH]c6c(Cl)cccc56)sc4-c4ccc(F)cc43)cc2)c1 [Example 175] | > 0.05 µM
Cc1cnc(N2CC3(CCOCC3)C2)c(C(=O)Nc2ccc(C(=O)N3CCc4cc(-c5c[nH]c6ccc(C)cc56)sc4-c4ccc(F)cc43)cc2)c1 [Example 176] | > 0.05 µM
Cc1cnc(N2CC3(CCOCC3)C2)c(C(=O)Nc2ccc(C(=O)N3CCc4cc(-c5c[nH]c6c(C)cccc56)sc4-c4ccc(F)cc43)cc2)c1 [Example 177] | 0.01 to 0.05 µM
Cc1cnc(N2CC3(CCOCC3)C2)c(C(=O)Nc2ccc(C(=O)N3CCc4cc(-c5ccc6[nH]ncc6c5)sc4-c4ccc(F)cc43)cc2)c1 [Example 178] | < 0.01 µM
Cc1cnc(N2CC3(CCOCC3)C2)c(C(=O)Nc2ccc(C(=O)N3CCc4cc(-c5cnc6[nH]ncc6c5)sc4-c4ccc(F)cc43)cc2)c1 [Example 179] | < 0.01 µM
Cc1cnc(N2CC3(CCOCC3)C2)c(C(=O)Nc2ccc(C(=O)N3CCc4cc(-c5c[nH]c6cccnc56)sc4-c4ccc(F)cc43)cc2)c1 [Example 180] | 0.01 to 0.05 µM
Cc1cnc(N2CC3(CCOCC3)C2)c(C(=O)Nc2ccc(C(=O)N3CCc4cc(-c5n[nH]c6ccccc56)sc4-c4ccc(F)cc43)cc2)c1 [Example 181] | < 0.01 µM
Cc1cnc(N2CC3(CCOCC3)C2)c(C(=O)Nc2ccc(C(=O)N3CCc4cc(-c5ccc[nH]c5=O)sc4-c4ccc(F)cc43)cc2)c1 [Example 182] | < 0.01 µM
Cc1cnc(N2CC3(CCOCC3)C2)c(C(=O)Nc2ccc(C(=O)N3CCc4cc(-c5cc[nH]c(=O)c5)sc4-c4ccc(F)cc43)cc2)c1 [Example 183] | < 0.01 µM
Cc1cnc(N2CC3(CCOCC3)C2)c(C(=O)Nc2ccc(C(=O)N3CCc4cc(-c5ccc(=O)[nH]c5)sc4-c4ccc(F)cc43)cc2)c1 [Example 184] | < 0.01 µM
Cc1cnc(N2CC3(CCOCC3)C2)c(C(=O)Nc2ccc(C(=O)N3CCc4cc(-c5c(F)cncc5F)sc4-c4ccc(F)cc43)cc2)c1 [Example 186] | 0.01 to 0.05 µM
Cc1cnc(N2CC3(CCOCC3)C2)c(C(=O)Nc2ccc(C(=O)N3CCc4cc(-c5ncc(C)[nH]5)sc4-c4ccc(F)cc43)cc2)c1 [Example 187] | < 0.01 µM
Cc1cnc(N2CC3(CCOCC3)C2)c(C(=O)Nc2ccc(C(=O)N3CCc4cc(-c5ccnnc5)sc4-c4ccc(F)cc43)cc2)c1 [Example 189] | < 0.01 µM
Cc1cnc(N2CC3(CCOCC3)C2)c(C(=O)Nc2ccc(C(=O)N3CCc4cc(-c5cccnn5)sc4-c4ccc(F)cc43)cc2)c1 [Example 190] | < 0.01 µM
Cc1cnc(N2CC3(CCOCC3)C2)c(C(=O)Nc2ccc(C(=O)N3CCc4cc(-c5ncccn5)sc4-c4ccc(F)cc43)cc2)c1 [Example 191] | 0.01 to 0.05 µM
Cc1cnc(N2CC3(CCOCC3)C2)c(C(=O)Nc2ccc(C(=O)N3CCc4cc(-c5cnsc5)sc4-c4ccc(F)cc43)cc2)c1 [Example 192] | < 0.01 µM
Cc1cnc(N2CC3(CCOCC3)C2)c(C(=O)Nc2ccc(C(=O)N3CCc4cc(-c5nnc(C)o5)sc4-c4cc(F)c(F)cc43)cc2)c1 [Example 193] | < 0.01 µM
Cc1cnc(N2CC3(CCOCC3)C2)c(C(=O)Nc2ccc(C(=O)N3CCc4cc(-c5nnnn5C5CC5)sc4-c4ccc(F)cc43)cc2)c1 [Example 194] | 0.01 to 0.05 µM
Cc1cnc(N2CC3(CCOCC3)C2)c(C(=O)Nc2ccc(C(=O)N3CCc4cc(-c5nnnn5C)sc4-c4ccc(F)cc43)cc2)c1 [Example 195] | 0.01 to 0.05 µM
Cc1cnc(N2CC3(CCOCC3)C2)c(C(=O)Nc2ccc(C(=O)N3CCc4cc(-c5nnn[nH]5)sc4-c4ccc(F)cc43)cc2)c1 [Example 196] | > 0.05 µM
Cc1cnc(N2CC3(CCOCC3)C2)c(C(=O)Nc2ccc(C(=O)N3CCc4c(sc(C(=O)Nc5c(F)cccc5Cl)c4F)-c4ccccc43)cc2)c1 [Example 197] | < 0.01 µM
Cc1cnc(N2CC3(CCOCC3)C2)c(C(=O)Nc2ccc(C(=O)N3CCc4c(sc(C(=O)Nc5c(F)cc(F)cc5Cl)c4F)-c4ccccc43)cc2)c1 [Example 199] | < 0.01 µM
Cc1cnc(N2CC3(CCOCC3)C2)c(C(=O)Nc2ccc(C(=O)N3CCc4c(sc(C(=O)Nc5c(F)cccc5C(F)(F)F)c4F)-c4ccccc43)cc2)c1 [Example 200] | < 0.01 µM
Cc1cnc(N2CC3(CCOCC3)C2)c(C(=O)Nc2ccc(C(=O)N3CCc4c(sc(-c5nc6ccccc6[nH]5)c4F)-c4ccccc43)cc2)c1 [Example 201] | < 0.01 µM
